Earlier results on one molecule are cited in patent US20250255801A1, “Novel Parenteral Composition Comprising Linagliptin or its Salts” (Zenvision Pharma LLP, priority 2021, published 2025).

Values after ≈ are worked out from the molar mass of the structure shown.

For series [1] the following is noted: high solubility and low permeability.
Test in series [2]: not given
This is another data set of the same source.

Take `CC#CCn1c(N2CCC[C@@H](N)C2)nc2c1c(=O)n(Cc1nc(C)c3ccccc3n1)c(=O)n2C` [Linagliptin, 1H-Purine-2,6-dione, 8-[(3R)-3-amino-1-piperidinyl]-7-(2-butyn-1-yl)-3,7-dihydro-3-methyl-1-[(4-methyl-2 quinazolinyl)methyl]-]: the oral systemic bioavailability entry is “approximately 30%”. Moreover, the BCS class result in series [1] was “Class III”. Further, in series [2] (acetone), the Solubility in acetone entry was “ca. 1 mg/mL”. Moreover, in series [2] (ethanol), the Solubility in ethanol entry is given as “ca. 10 mg/mL”. The Solubility in isopropanol in series [2] (isopropanol) was below 1000 µg/mL. Also, the Solubility in methanol result in series [2] (methanol) is given as “ca. 60 mg/mL”. The Solubility in water in series [2] (water) is 900 µg/mL (≈ 1900 µM).
